Activity calls are given as the source filed them.
What was measured:
Escherichia coli = experiment: microbe, parasite or virus in culture
[1] = biological target: T1, Heat shock factor protein 1 (Mus musculus, UniProt P38532); experiment: inhibition of MG132-induced HSE-luciferase signal, confirmation, cell-based, NIH3T3, luminescence, dose retest (AID 2382); format: functional;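 also: NIH3T3 fibroblasts with HSF1-driven luciferase reporter stressed by proteasome inhibitor MG132; luminescence from HSF1-driven luciferase expression after 8 hours of MG132 stress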
T1 sequence (P38532 whole entry): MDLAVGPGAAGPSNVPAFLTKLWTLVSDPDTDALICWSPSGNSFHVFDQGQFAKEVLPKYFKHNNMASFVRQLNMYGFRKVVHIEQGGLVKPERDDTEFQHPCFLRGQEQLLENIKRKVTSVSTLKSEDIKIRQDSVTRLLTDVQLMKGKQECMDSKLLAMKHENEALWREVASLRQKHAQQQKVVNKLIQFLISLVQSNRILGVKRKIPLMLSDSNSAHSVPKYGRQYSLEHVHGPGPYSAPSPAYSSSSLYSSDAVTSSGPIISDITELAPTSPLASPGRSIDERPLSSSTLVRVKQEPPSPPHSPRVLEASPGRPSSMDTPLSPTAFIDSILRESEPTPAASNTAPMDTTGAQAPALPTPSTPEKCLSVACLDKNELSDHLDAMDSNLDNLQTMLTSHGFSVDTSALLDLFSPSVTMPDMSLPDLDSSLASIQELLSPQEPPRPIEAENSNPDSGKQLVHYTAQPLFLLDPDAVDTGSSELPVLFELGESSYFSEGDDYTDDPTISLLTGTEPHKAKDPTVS

[2] = biological target: T2, Short transient receptor potential channel 4 (Mus musculus, UniProt Q9QUQ5); experiment: SAR Analysis for the identification of selective inhibitors of the transient receptor potential cation channel C4 (TRPC4): TRPC4 Serotonin Receptor CRC MPD assay. [Related pubchem assays (depositor defined):AID2247, AID2256]; format: functional
T2 sequence (Q9QUQ5 whole entry): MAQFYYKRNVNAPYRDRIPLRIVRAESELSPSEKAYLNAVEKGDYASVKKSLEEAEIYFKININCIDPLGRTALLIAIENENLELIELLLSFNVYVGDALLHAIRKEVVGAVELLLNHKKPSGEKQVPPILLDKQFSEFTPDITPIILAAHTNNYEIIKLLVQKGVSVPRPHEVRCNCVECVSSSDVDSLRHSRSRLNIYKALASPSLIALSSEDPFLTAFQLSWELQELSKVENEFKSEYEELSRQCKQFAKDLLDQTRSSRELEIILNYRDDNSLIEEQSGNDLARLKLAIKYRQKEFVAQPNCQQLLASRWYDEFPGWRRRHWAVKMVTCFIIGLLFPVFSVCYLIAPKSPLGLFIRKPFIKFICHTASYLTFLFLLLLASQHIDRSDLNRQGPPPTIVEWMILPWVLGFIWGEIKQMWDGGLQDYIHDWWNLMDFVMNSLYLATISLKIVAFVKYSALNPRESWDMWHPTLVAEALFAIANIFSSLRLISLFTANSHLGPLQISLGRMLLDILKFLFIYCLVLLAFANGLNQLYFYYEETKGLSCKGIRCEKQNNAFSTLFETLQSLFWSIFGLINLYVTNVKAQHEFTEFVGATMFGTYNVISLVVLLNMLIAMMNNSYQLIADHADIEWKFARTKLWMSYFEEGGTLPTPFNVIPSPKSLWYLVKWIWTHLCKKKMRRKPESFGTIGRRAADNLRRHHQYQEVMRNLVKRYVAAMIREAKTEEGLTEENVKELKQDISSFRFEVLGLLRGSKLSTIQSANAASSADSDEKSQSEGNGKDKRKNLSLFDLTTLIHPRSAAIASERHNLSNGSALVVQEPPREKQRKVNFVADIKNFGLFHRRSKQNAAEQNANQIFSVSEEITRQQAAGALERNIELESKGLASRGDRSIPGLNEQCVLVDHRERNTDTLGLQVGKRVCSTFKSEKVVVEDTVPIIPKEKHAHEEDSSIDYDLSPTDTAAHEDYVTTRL

[3] = biological target: T2, Short transient receptor potential channel 4; experiment: TRPC4 inhibitor concentration-response, dose response, cell-based, HEK293 TRPC4/mu-opioid, DAMGO stimulus, Fluo-4 (AID 492994); format: functional
[4] = biological target: T2, Short transient receptor potential channel 4; experiment: mouse TRPC4 channel inhibitors, dose response, cell-based, HEK293 TRPC4/mu-opioid, Fluo-4 calcium (AID 434942); format: functional;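 also: potency of inhibitors blocking the TRPC4 calcium response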
[5] = biological target: T2, Short transient receptor potential channel 4; experiment: SAR Analysis for the identification of selective inhibits of the transient receptor potential cation channel C4 (TRPC4): Automated Electrophysiology. [Related pubchem assays (depositor defined):AID2256]; format: functional
[6] = biological target: T2, Short transient receptor potential channel 4; experiment: TRPC4 inhibition under acetylcholine activation, SAR follow-up, cell-based, acetylcholine stimulus, HEK293 TRPC4, Fluo-4 (AID 492996); format: functional
Candida albicans = experiment: growth inhibition of resistant C. albicans, dose response, CaCi-8 strain, fluconazole, dry powder, set 4 (AID 488950); format: functional, organism-based

**Q.** Which AC50 (Escherichia coli) does the source give for CCn1ccnc1CN(C)C(=O)c1cc(COc2ccc(Cl)cc2OC)on1 here?
**A.** 160000 nM (active)

**Q.** And the EC50 [1]?
**A.** > 195000 nM (not active)

**Q.** What does the source list for Cc1cc(N2CCCCC2)nc2ccccc12?
**A.** IC50 [2]: 2240 nM (active); IC50 [3]: 820 nM (active); EC50 [4]: 2.7 nM (active); IC50 [5]: 2630 nM (active); IC50 [6]: 1230 nM (active)

**Q.** O=C(c1ccc(Cl)cc1)N1CCN(c2ccnc3ccccc23)CC1 was tested. Which AC50 (Candida albicans) did it give?
**A.** 9810 nM (active)
